Laboratory results taken from US6274568A, “Compounds for altering cell surface sialic acids and methods of use therefor” (priority 1999, dated 2001).
“Also recorded” adds a separate entry of the source.

Columns and labels:
NG108-15 cells [1] = assay: Uptake of mannosamine precursors and conversion to sialic acids (precursor pool, gangliosides, glycoproteins) in NG108-15 cells, HPLC; format: cell-based, mouse neuroblastoma/rat glioma hybrid
Protocol: (§1) Cells were harvested using hypertonic Ca^2+ - and Mg^2+ -free phosphate-buffered saline containing 1 mM EDTA, collected by centrifugation, and homogenized in ice-cold water using a Potter-Elvehjem glass/Teflon homogenizer. Methanol (2.6 volumes) was added, the suspension mixed and brought to ambient temperature, then chloroform (1.3 volumes, based on the original homogenate) was added and the suspension mixed vigorously. The suspension was centrifuged 30 min at 2,000×g. After collecting the supernatant, the pellet (containing precipitated proteins) was resuspended in water or concentrated ammonium hydroxide and a portion was used for protein assay (BCA, Pierce, Rockford, Ill.). The supernatant was partitioned by adjusting the chloroform-methanol-water ratio to 4:8:5.6 by addition of water, mixing thoroughly, and centrifuging as above. The upper phase was collected and a portion was subjected to reverse phase chromatography, using Sep-Pak C18 cartridges (Waters, Milford, Mass.), to isolate gangliosides (Schnaar, Methods Enzymol. 230:371, 1994).
(§2) To quantify and identify sialic acids, a portion of resolublized protein, organic/aqueous soluble pool, or reverse-phase purified gangliosides was evaporated to dryness in a 500-μl polypropylene tube and 20 μl of 0.1 M HCl/0.25 M NaCl was added. One Ampliwax bead (Perkin Elmer Corp, Foster City, Calif.) per reaction was added to block evaporation, and the sample hydrolyzed for 3 h at 80° C. Released sialic acids were analyzed by injecting an aliquot (1-10 μl) onto a Dionex high pressure liquid chromatography system (Dionex Corporation, Sunnyvale, Calif.) using a HPIC-AS6 column and a pulsed amperometric detector. Elution solutions were: A, 0.75 mM NaOH; B, 200 mM NaOH; and C, 400 mM sodium acetate in 50 mM NaOH. NeuAc and NeuPr were resolved by elution with 40% A, 50% B, 10% C for 15 min at 1 ml/min. NeuGc was resolved in separate injections using step gradient elution: 0-1.8 min, 18% A, 50% B, 32% C; 2-10 min, 40% B, 60% C. Sialic acids were identified by comparison of their elution time with those of standard NeuAc, NeuPr and NeuGc and were quantified in comparison to a standard curve of commercial NeuAc (for NeuAc and NeuPr) or NeuGc.
(§3) To confirm that the quantified peaks represented sialic acids, 10 μl of acid hydrolysates were treated with 1 μl of 1 M sodium phosphate (pH 7.2) and 10 μl of 0.1 M NaOH. Neutralized samples were incubated at 37° C. for 2 h with or without 0.9 U of N-acetylneuraminic acid aldolase (Sigma), 32 μM NADH and 0.1 μg lactate dehydrogenase. Sialic acid content in the ganglioside and glycoprotein fractions is expressed per mg of total cell protein. Precursor pool sialic acid (sialic acid plus CMP-sialic acid) was calculated by subtracting the ganglioside value from the organic/aqueous pool value, both expressed per mg of cell protein.
Sialic acid is biosynthesized from the precursor sugar N-acetylmannosamine (FIG. 2). In the present invention, sialic acids are converted on live neuronal cells from NeuAc, which is a key determinant for MAG binding, to NeuGc, which is non-permissive for MAG binding. A potential NeuGc precursor, N-glycolylmannosamine monoacetate (ManNGcMA, FIG. 1, R1 =H) was tested for its ability to generate altered sialic acids in neuronal and non-neuronal cells. N-propanoylmannosamine (ManNPr) and other N-acyl mannosamine derivatives have been used to modify glycoprotein associated sialic acids to the corresponding N-acylneuraminic acid. N-propanoyl-mannosamine (ManNPr), was used as a positive control. […] Cell pellets were fractioned into lipid associated, protein associated, and intracellular (lipid and cytoplasmic which may consist of oligosaccharide-bound, free, or CMP-activated sialic acid) sialic acids and hydrolyzed to release sialic acid. The hydrolyzed samples were then analyzed by HPLC to determine sialic acid content. […]

Jurkat cells [2] = assay: Uptake of mannosamine precursors and conversion to sialic acids in Jurkat cells, HPLC; format: cell-based, human; settings: 20 mM precursor, 48 h
Protocol: as §1, §2, §3
Sialic acid is biosynthesized from the precursor sugar N-acetylmannosamine (FIG. 2). In the present invention, sialic acids are converted on live neuronal cells from NeuAc, which is a key determinant for MAG binding, to NeuGc, which is non-permissive for MAG binding. A potential NeuGc precursor, N-glycolylmannosamine monoacetate (ManNGcMA, FIG. 1, R1 =H) was tested for its ability to generate altered sialic acids in neuronal and non-neuronal cells. N-propanoylmannosamine (ManNPr) and other N-acyl mannosamine derivatives have been used to modify glycoprotein associated sialic acids to the corresponding N-acylneuraminic acid. N-propanoyl-mannosamine (ManNPr), was used as a positive control. Jurkat human lymphoma cells and NG108-15 cells (rodent neuroblastoma/glioma hybrid cells) were incubated in 20 mM synthetic precursor or control precursor (N-acetylmannosamine, ManNAc) for 48 h, then harvested. Cell pellets were fractioned into lipid associated, protein associated, and intracellular (lipid and cytoplasmic which may consist of oligosaccharide-bound, free, or CMP-activated sialic acid) sialic acids and hydrolyzed to release sialic acid. […]

Jurkat cells [3] = assay: Morphology and viability of precursor-treated Jurkat cells; format: cell-based, human
Protocol: Jurkat cells were maintained in RPMI Medium 1640 (Gibco Life Technologies, Gaithersburg, Md.) supplemented with 10% fetal bovine serum. Both cell types were cultured at 37° C. in a humidified atmosphere of 90% air/10% CO2. For treatment with sialic acid precursors, mannosamine derivatives were diluted into the appropriate medium and filter sterilized. The growth medium was then replaced and cells were cultured in the presence of the precursor for 24-144 h.

NG108-15 cells [4] = tested on: NG108-15 cells
Protocol: Cell growth rates were determined in control cultures (.box-solid.), in cultures treated with 0.08 mM (.circle-solid.), 0.25 mM (.smallcircle.), or 1 mM (.quadrature.) ManNGcPA, and in cultures treated with 0.25 mM (.tangle-solidup.) or 1 mM (Δ) glucose pentaacetate.
NG108-15 cells were maintained in Dulbecco's modified Eagle's medium (high glucose formulation) containing 5% iron-enriched calf serum, 100 μM hypoxanthine, 16 μM thymidine, and 5 μM aminopterin. […] Both cell types were cultured at 37° C. in a humidified atmosphere of 90% air/10% CO2. For treatment with sialic acid precursors, mannosamine derivatives were diluted into the appropriate medium and filter sterilized. […] In experiments testing ManNGcPA, all cells (control and experimental) were grown in the presence of 0.5% (v/v) DMSO, the carrier for ManNGcPA.

[5] = tested on: myelin-associated glycoprotein (MAG); settings: cited from earlier work
sialoadhesin = settings: cited from earlier work
NG108-15 cells [6] = settings: cited from earlier work
[7] = NG108-15, 20 mM precursor, 48 h

## CCC(=O)N[C@@H]1C(O)O[C@H](CO)[C@@H](O)[C@@H]1O (stereo partly shown) [ManNPr, N-Propanoylmannosamine, reference compound]
NG108-15 cells [1]
  incorporation into gangliosides and glycoproteins as NeuPr: efficiently incorporated
NG108-15 cells [1]; 20 mM precursor, 48 h
  increase in intracellular sialic acid (precursor pool): 4 fold
  increase in total glycoprotein sialic acid: ≈ 1.4 fold
  sialic acid precursor pool as NeuPr: > 95%
NG108-15 cells [1]; [7]
  ganglioside (lipid associated) sialic acid in the form of NeuPr: 70% and ≈ 70%
  intracellular sialic acid pool as NeuPr: composed predominantly
  levels of intracellular sialic acid: high levels
  size of the ganglioside pool: remained relatively constant
NG108-15 cells [1]; NG108-15, 20 mM precursor, 48 h, listed as N-propanoylmannosamine
  levels of intracellular sialic acid: high levels of intracellular sialic acid similar to that observed with N-acetylmannosamine treatment
Jurkat cells [2]
  glycoprotein associated sialic acid in the form of NeuPr: ≈ 50%
  intracellular sialic acid pool as NeuPr: composed predominantly
  levels of intracellular sialic acid: high levels
  lipid associated sialic acid in the form of NeuPr: 33%
Jurkat cells [2]; listed as N-propanoylmannosamine
  levels of intracellular sialic acid: high levels of intracellular sialic acid similar to that observed with N-acetylmannosamine treatment
Jurkat cells [3]
  alteration of cell morphology or viability: did not seem to alter cell morphology or viability significantly
NG108-15 cells [4]
  alteration of cell morphology or viability: did not seem to alter cell morphology or viability significantly

## CC(=O)N[C@H]1[C@H]([C@H](O)[C@H](O)CO)OC(O)(C(=O)O)C[C@@H]1O (stereo partly shown) [NeuAc, N-acetylneuraminic acid]
[5]
  support of MAG binding / recognition: support MAG binding; also recorded: MAG and sialoadhesin bind NeuAc
sialoadhesin
  sialoadhesin binding: MAG and sialoadhesin bind NeuAc

B1: MAG: Myelin associated glycoprotein (MAG), a sialic acid binding lectin and member of the siglec family (protein, UniProt P20916 20-626, looked up)
Myelin-associated glycoprotein: GHWGAWMPSSISAFEGTCVSIPCRFDFPDELRPAVVHGVWYFNSPYPKNYPPVVFKSRTQVVHESFQGRSRLLGDLGLRNCTLLLSNVSPELGGKYYFRGDLGGYNQYTFSEHSVLDIVNTPNIVVPPEVVAGTEVEVSCMVPDNCPELRPELSWLGHEGLGEPAVLGRLREDEGTWVQVSLLHFVPTREANGHRLGCQASFPNTTLQFEGYASMDVKYPPVIVEMNSSVEAIEGSHVSLLCGADSNPPPLLTWMRDGTVLREAVAESLLLELEEVTPAEDGVYACLAENAYGQDNRTVGLSVMYAPWKPTVNGTMVAVEGETVSILCSTQSNPDPILTIFKEKQILSTVIYESELQLELPAVSPEDDGEYWCVAENQYGQRATAFNLSVEFAPVLLLESHCAAARDTVQCLCVVKSNPEPSVAFELPSRNVTVNESEREFVYSERSGLVLTSILTLRGQAQAPPRVICTARNLYGAKSLELPFQGAHRLMWAKIGPVGAVVAFAILIAIVCYITQTRRKKNVTESPSFSAGDNPPVLFSSDFRISGAPEKYESERRLGSERRLLGLRGEPPELDLSYSHSDLGKRPTKDSYTLTEELAEYAEIRVK
NG108-15 cells [6]
  neurite outgrowth from NG108-15 cells: inhibited
